Assays:
bedstraw = assay: Test B pre/postemergence bedstraw; type: in vivo, Galium aparine
In short: (§1)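 Herbicidal effect was estimated by eye on a ten-point control scale after plants spent twelve to sixteen days in a greenhouse following soil or foliar treatment. Foliar sprays targeted plants at one to four leaves; all doses were formulated in a non-phytotoxic solvent with surfactant.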

blackgrass = assay: Test B pre/postemergence blackgrass; type: in vivo, Alopecurus myosuroides
In short: as §1

surinam grass = assay: Test B pre/postemergence surinam grass; type: in vivo, Brachiaria decumbens; details: Postemergence
In short: as §1

cocklebur = assay: Test B pre/postemergence cocklebur; type: in vivo, Xanthium strumarium
In short: as §1

corn = assay: Test B pre/postemergence corn; type: in vivo, Zea mays
In short: as §1

crabgrass = assay: Test B pre/postemergence crabgrass; type: in vivo, Digitaria sanguinalis
In short: as §1

giant foxtail = assay: Test B pre/postemergence giant foxtail; type: in vivo, Setaria faberii
In short: as §1

morningglory = assay: Test B pre/postemergence morningglory; type: in vivo, Ipomoea hederacea
In short: as §1

pigweed = assay: Test B pre/postemergence pigweed; type: in vivo, Amaranthus retroflexus
In short: as §1

rape = assay: Test B pre/postemergence rape; type: in vivo, Brassica napus
In short: as §1

soybean = assay: Test B pre/postemergence soybean; type: in vivo, Glycine max
In short: as §1

sugar beet = assay: Test B pre/postemergence sugar beet; type: in vivo, Beta vulgaris
In short: as §1

velvetleaf = assay: Test B pre/postemergence velvetleaf; type: in vivo, Abutilon theophrasti
In short: as §1

wheat = assay: Test B pre/postemergence wheat; type: in vivo, Triticum aestivum
In short: as §1

wild oat = assay: Test B pre/postemergence wild oat; type: in vivo, Avena fatua
In short: as §1

purple nutsedge = assay: Test B pre/postemergence purple nutsedge; type: in vivo, Cyperus rotundus
In short: as §1

[1] = Postemergence, Rate 62 g/ha, scale 0 to 10, 0 is no effect, 10 is complete control
[2] = Postemergence, Rate 125 g/ha, scale of 0 to 10 where 0 is no effect and 10 is complete control
[3] = Preemergence, Rate 125 g/ha, scale of 0 to 10 where 0 is no effect and 10 is complete control
[4] = Preemergence, Rate 250 g/ha, scale 0 (no effect) to 10 (complete control)
[5] = Rate 62 g/ha, Preemergence, scale 0 to 10
[6] = Rate 250 g/ha, Postemergence, scale 0 to 10, 0 is no effect, 10 is complete control
[7] = Rate 500 g/ha, Postemergence, scale 0 to 10, 0 is no effect, 10 is complete control
[8] = Rate 500 g/ha, Preemergence, scale 0 to 10 (0 no effect, 10 complete control)

SMILES: CC(C)N(C(=O)n1oc(=O)n(C(C)C(=S)N(C)C)c1=O)c1ccc(F)cc1F (stereo not shown) [Compound 739]
- Plant response rating, Bedstraw (bedstraw; [1]): 3
- Bedstraw plant response rating (bedstraw; [2]): 3
- Plant response rating, Bedstraw (bedstraw; [3]): 10
- Bedstraw plant response rating (bedstraw; [4]): 10
- Bedstraw plant response rating (bedstraw; [5]): 0
- Bedstraw plant response rating (bedstraw; [6]): 4
- Bedstraw plant response rating (bedstraw; [7]): 6
- Bedstraw plant response rating (bedstraw; [8]): 10
- Plant response rating, Blackgrass (blackgrass; [1]): 0
- Blackgrass plant response rating (blackgrass; [2]): 3
- Plant response rating, Blackgrass (blackgrass; [3]): 3
- Blackgrass plant response rating (blackgrass; [4]): 3
- Blackgrass plant response rating (blackgrass; [5]): 2
- Blackgrass plant response rating (blackgrass; [6]): 3
- Blackgrass plant response rating (blackgrass; [7]): 6
- Blackgrass plant response rating (blackgrass; [8]): 10
- Plant response rating, B. signalgrass (surinam grass; Rate 62 g/ha, scale 0 to 10, 0 is no effect, 10 is complete control): 0
- B. signalgrass plant response rating (surinam grass; Rate 125 g/ha, scale of 0 to 10 where 0 is no effect and 10 is complete control): 2
- B. signalgrass plant response rating (surinam grass; Rate 250 g/ha, scale 0 to 10, 0 is no effect, 10 is complete control): 2
- B. signalgrass plant response rating (surinam grass; Rate 500 g/ha, scale 0 to 10, 0 is no effect, 10 is complete control): 7
- Plant response rating, Cocklebur (cocklebur; [1]): 2
- Cocklebur plant response rating (cocklebur; [2]): 2
- Plant response rating, Cocklebur (cocklebur; [3]): 0
- Cocklebur plant response rating (cocklebur; [4]): 0
- Cocklebur plant response rating (cocklebur; [5]): 0
- Cocklebur plant response rating (cocklebur; [6]): 2
- Cocklebur plant response rating (cocklebur; [7]): 3
- Cocklebur plant response rating (cocklebur; [8]): 0
- Plant response rating, Corn (corn; [1]): 0
- Corn plant response rating (corn; [2]): 0
- Plant response rating, Corn (corn; [3]): 0
- Corn plant response rating (corn; [4]): 2
- Corn plant response rating (corn; [5]): 0
- Corn plant response rating (corn; [6]): 0
- Corn plant response rating (corn; [7]): 0
- Corn plant response rating (corn; [8]): 2
- Plant response rating, Crabgrass (crabgrass; [1]): 4
- Crabgrass plant response rating (crabgrass; [2]): 9
- Plant response rating, Crabgrass (crabgrass; [3]): 2
- Crabgrass plant response rating (crabgrass; [4]): 9
- Crabgrass plant response rating (crabgrass; [5]): 2
- Crabgrass plant response rating (crabgrass; [7]): 9
- Crabgrass plant response rating (crabgrass; [8]): 10
- Plant response rating, Giant foxtail (giant foxtail; [1]): 7
- Giant foxtail plant response rating (giant foxtail; [2]): 9
- Plant response rating, Giant foxtail (giant foxtail; [3]): 9
- Giant foxtail plant response rating (giant foxtail; [4]): 9
- Giant foxtail plant response rating (giant foxtail; [5]): 9
- Giant foxtail plant response rating (giant foxtail; [6]): 9
- Giant foxtail plant response rating (giant foxtail; [7]): 9
- Giant foxtail plant response rating (giant foxtail; [8]): 10
- Plant response rating, Morningglory (morningglory; [1]): 6
- Plant response rating, Morningglory (morningglory; [3]): 0
- Morningglory plant response rating (morningglory; [4]): 0
- Morningglory plant response rating (morningglory; [5]): 0
- Morningglory plant response rating (morningglory; [6]): 6
- Morningglory plant response rating (morningglory; [7]): 8
- Morningglory plant response rating (morningglory; [8]): 0
- Plant response rating, Redroot pigweed (pigweed; [1]): 0
- Redroot pigweed plant response rating (pigweed; [2]): 3
- Plant response rating, Redroot pigweed (pigweed; [3]): 2
- Redroot pigweed plant response rating (pigweed; [4]): 9
- Redroot pigweed plant response rating (pigweed; [5]): 2
- Redroot pigweed plant response rating (pigweed; [6]): 3
- Redroot pigweed plant response rating (pigweed; [7]): 5
- Redroot pigweed plant response rating (pigweed; [8]): 10
- Plant response rating, Rape (rape; [1]): 0
- Rape plant response rating (rape; [2]): 0
- Plant response rating, Rape (rape; [3]): 0
- Rape plant response rating (rape; [4]): 0
- Rape plant response rating (rape; [5]): 0
- Rape plant response rating (rape; [6]): 0
- Rape plant response rating (rape; [7]): 2
- Rape plant response rating (rape; [8]): 2
- Plant response rating, Soybean (soybean; [1]): 3
- Soybean plant response rating (soybean; [2]): 3
- Plant response rating, Soybean (soybean; [3]): 0
- Soybean plant response rating (soybean; [4]): 0
- Soybean plant response rating (soybean; [5]): 0
- Soybean plant response rating (soybean; [6]): 4
- Soybean plant response rating (soybean; [7]): 5
- Soybean plant response rating (soybean; [8]): 0
- Plant response rating, Sugarbeets (sugar beet; [1]): 3
- Sugarbeets plant response rating (sugar beet; [2]): 3
- Plant response rating, Sugarbeets (sugar beet; [3]): 2
- Sugarbeets plant response rating (sugar beet; [4]): 2
- Sugarbeets plant response rating (sugar beet; [5]): 2
- Sugarbeets plant response rating (sugar beet; [6]): 3
- Sugarbeets plant response rating (sugar beet; [7]): 4
- Sugarbeets plant response rating (sugar beet; [8]): 4
- Plant response rating, Velvetleaf (velvetleaf; [1]): 0
- Velvetleaf plant response rating (velvetleaf; [2]): 0
- Plant response rating, Velvetleaf (velvetleaf; [3]): 0
- Velvetleaf plant response rating (velvetleaf; [4]): 2
- Velvetleaf plant response rating (velvetleaf; [5]): 0
- Velvetleaf plant response rating (velvetleaf; [6]): 0
- Velvetleaf plant response rating (velvetleaf; [7]): 3
- Velvetleaf plant response rating (velvetleaf; [8]): 3
- Plant response rating, Wheat (wheat; [1]): 0
- Wheat plant response rating (wheat; [2]): 0
- Plant response rating, Wheat (wheat; [3]): 0
- Wheat plant response rating (wheat; [4]): 0
- Wheat plant response rating (wheat; [5]): 0
- Wheat plant response rating (wheat; [6]): 2
- Wheat plant response rating (wheat; [7]): 6
- Wheat plant response rating (wheat; [8]): 3
- Plant response rating, Wild oats (wild oat; [1]): 0
- Wild oats plant response rating (wild oat; [2]): 0
- Plant response rating, Wild oats (wild oat; [3]): 0
- Wild oats plant response rating (wild oat; [4]): 0
- Wild oats plant response rating (wild oat; [5]): 0
- Wild oats plant response rating (wild oat; [6]): 0
- Wild oats plant response rating (wild oat; [7]): 0
- Wild oats plant response rating (wild oat; [8]): 4
- Plant response rating, Nutsedge (purple nutsedge; [1]): 0
- Plant response rating, Nutsedge (purple nutsedge; [3]): 0
- Nutsedge plant response rating (purple nutsedge; [4]): 0
- Nutsedge plant response rating (purple nutsedge; [5]): 0
- Nutsedge plant response rating (purple nutsedge; [6]): 0
- Nutsedge plant response rating (purple nutsedge; [7]): 3
- Nutsedge plant response rating (purple nutsedge; [8]): 0
